Data as given in patent publication US20240287138A1, “CYCLIC PEPTIDES FOR INHIBITING TNF RECEPTOR 1 ACTIVITY” (Merck Sharp & Dohme LLC, priority 2023, published 2024).
Numbered stars: 1 amine (or outer) side, 2 acyl side, 3 side chain; on linkers, the order of the positions; unused ones are H or OH. Bridge positions count the residues as written; N and C are the ends. Square brackets hold non-standard residues; d marks the D form. Peptide text beside a SMILES is read from it. * marks the point of attachment. Trp(βS-Me,7-OMe) = COc1cccc2c([C@H](C)[C@H](N)C(=O)O)c[nH]c12; X24 = O=C(O)c1ccc([C@@H](O)[C@H](N[*:1])C(=O)[*:2])cc1; Morpholine(3S-CO,6,6-Me2) = CC1(C)CN[C@H](C(=O)O)CO1; Trp(7-CN) = N#Cc1cccc2c(C[C@H](N)C(=O)O)c[nH]c12; Trp(7-Cl) = N[C@@H](Cc1c[nH]c2c(Cl)cccc12)C(=O)O; Phe(3-CONH2) = NC(=O)c1cccc(C[C@H](N)C(=O)O)c1; Phe(4-CONH2) = NC(=O)c1ccc(C[C@H](N)C(=O)O)cc1; Phe(4-COOH) = N[C@@H](Cc1ccc(C(=O)O)cc1)C(=O)O; 4Pal(3S-Me) = C[C@@H](c1ccncc1)[C@H](N)C(=O)O; Trp(7-aza) = N[C@@H](Cc1c[nH]c2ncccc12)C(=O)O; Pip(5R-OH) = O=C(O)[C@@H]1CC[C@@H](O)CN1; X1 = O=C([C@@H]1CC[C@H](N[*:1])C1)[*:2]; Pip(4-aza) = O=C(O)[C@@H]1CNCCN1; hPhe = N[C@@H](CCc1ccccc1)C(=O)O; 4Pal = N[C@@H](Cc1ccncc1)C(=O)O; NMeE = CN[C@@H](CCC(=O)O)C(=O)O; dHyp = O=C(O)[C@H]1C[C@H](O)CN1; aThr = C[C@H](O)[C@H](N)C(=O)O; Ahp(2) = CCCCC[C@H](N)C(=O)O; αMeS = C[C@](N)(CO)C(=O)O; Carboxymethyl = O=C(O)C*; Nle = CCCC[C@H](N)C(=O)O; Sar = CNCC(=O)O

Assays:
[1] = target: T1, human soluble TNFR1 (sTNFR1) (Homo sapiens, UniProt P19438); experiment: Human sTNFR1-peptide displacement assay (LanthaScreen Eu TR-FRET binding assay)
T1 construct: made in house; host or cells: Sf21 (baculovirus)
T1 sequence (P19438 with tags, fused parts or gaps): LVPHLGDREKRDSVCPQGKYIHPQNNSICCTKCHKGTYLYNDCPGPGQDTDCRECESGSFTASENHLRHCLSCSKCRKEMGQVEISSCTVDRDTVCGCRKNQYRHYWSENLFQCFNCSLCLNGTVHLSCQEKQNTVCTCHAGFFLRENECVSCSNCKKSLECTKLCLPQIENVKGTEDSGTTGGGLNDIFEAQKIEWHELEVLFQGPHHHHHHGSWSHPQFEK
Outline: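 Readout is the 665/615 nm TR-FRET ratio (Eu anti-His donor, streptavidin-Alexa647 acceptor), normalized to DMSO and saturating displacer, fit by Morrison-based five-parameter logistic for Kd^app. His-tagged sTNFR1 (1-211) prebound to 100 nM biotinylated peptide SEQ ID NO.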

human TNFR2 ECD protein = target: T2, human TNFR2 ECD protein (Homo sapiens, UniProt P20333); experiment: SPR off-target binding (selectivity) to human TNFR2 ECD
T2 construct: HRV 3C protease cleavage site (C); 6His (C, cleaved yes); made in house; host or cells: Sf21 insect cells (baculovirus), secreted
T2 sequence (P20333 23-257): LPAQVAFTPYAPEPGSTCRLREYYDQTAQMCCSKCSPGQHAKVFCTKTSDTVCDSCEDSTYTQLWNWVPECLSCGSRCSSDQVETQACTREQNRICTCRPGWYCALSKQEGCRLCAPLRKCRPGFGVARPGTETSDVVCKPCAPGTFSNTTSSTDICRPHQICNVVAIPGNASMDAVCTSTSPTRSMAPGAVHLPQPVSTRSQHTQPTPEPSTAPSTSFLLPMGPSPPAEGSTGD
Outline: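 Peptide binding kinetics read by SPR in HEPES pH 7.4 running buffer with 2% DMSO, with TNFR2 ECD tested in parallel for off-target binding. Receptor ECDs, insect-cell expressed and biotinylated at C-terminal avi-tag, were captured via streptavidin. KA derived from association and dissociation rate constants.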

SMILES	IC50 [1] [nM]	Kd [1] [nM]	Kd (human TNFR2 ECD protein) [nM]
CCCC[C@@H]1NC(=O)CSC[C@@H](C(N)=O)NC(=O)[C@H]([C@@H](C)c2c[nH]c3c(OC)cccc23)NC(=O)CN(C)C(=O)[C@H](Cc2ccc(O)cc2)NC(=O)[C@H](Cc2ccc(C(=O)O)cc2)NC(=O)[C@](C)(CO)NC(=O)[C@H](Cc2c[nH]c3c(Cl)cccc23)NC(=O)[C@H](Cc2ccncc2)NC(=O)[C@H](CC(N)=O)NC(=O)[C@H](CCC(=O)O)N(C)C(=O)[C@H](Cc2c[nH]c3ncccc23)NC(=O)[C@@H]2CNCCN2C(=O)[C@H](CCc2ccccc2)NC1=O [SEQ ID NO. 172] ({CH2CO}-[Nle][hPhe][Pip(4-aza)][Trp(7-aza)][NMeE]N[4Pal][Trp(7-Cl)][αMeS][Phe(4-COOH)]Y[Sar][Trp(βS-Me,7-OMe)]C-NH2; thioether N-14)	0.63	0.57	> 1000
CCCCC[C@@H]1NC(=O)[C@@H]2CC[C@@H](C2)NC(=O)[C@H]([C@@H](C)c2c[nH]c3c(OC)cccc23)NC(=O)CN(C)C(=O)[C@H](Cc2cccc(C(N)=O)c2)NC(=O)[C@H](Cc2ccc(C(N)=O)cc2)NC(=O)[C@](C)(CO)NC(=O)[C@H](Cc2c[nH]c3c(C#N)cccc23)NC(=O)[C@H](Cc2ccncc2)NC(=O)[C@H](CC(N)=O)NC(=O)[C@H]2C[C@H](O)CN2C(=O)[C@H](Cc2c[nH]c3ccccc23)NC(=O)[C@@H]2CNCCN2C(=O)[C@H](Cc2ccncc2)NC1=O [SEQ ID NO. 174] (cyclo([4Pal][Trp(7-CN)][αMeS][Phe(4-CONH2)][Phe(3-CONH2)][Sar][Trp(βS-Me,7-OMe)][X1][Ahp(2)][4Pal][Pip(4-aza)]W[dHyp]N))	–	0.06	> 1000
CCCC[C@@H]1NC(=O)CSC[C@@H](C(N)=O)NC(=O)[C@H]([C@@H](C)c2c[nH]c3c(OC)cccc23)NC(=O)CN(C)C(=O)[C@H](Cc2ccc(O)cc2)NC(=O)[C@H](Cc2ccc(C(=O)O)cc2)NC(=O)[C@](C)(CO)NC(=O)[C@H](Cc2c[nH]c3c(Cl)cccc23)NC(=O)[C@H](Cc2ccc(OCC(=O)O)cc2)NC(=O)[C@H](CC(N)=O)NC(=O)[C@H](CCC(=O)O)N(C)C(=O)[C@H](Cc2c[nH]c3ccccc23)NC(=O)[C@@H]2COC(C)(C)CN2C(=O)[C@H](Cc2ccncc2)NC1=O [SEQ ID NO. 179] ({CH2CO}-[Nle][4Pal][Morpholine(3S-CO,6,6-Me2)]W[NMeE]NY(Carboxymethyl)[Trp(7-Cl)][αMeS][Phe(4-COOH)]Y[Sar][Trp(βS-Me,7-OMe)]C-NH2; thioether N-14)	0.5	0.29	> 1000
CCCC[C@@H]1NC(=O)CSC[C@@H](C(N)=O)NC(=O)[C@H]([C@@H](C)c2c[nH]c3c(OC)cccc23)NC(=O)CN(C)C(=O)[C@H](Cc2ccc(O)cc2)NC(=O)[C@H](Cc2ccc(C(=O)O)cc2)NC(=O)[C@](C)(CO)NC(=O)[C@H](Cc2c[nH]c3c(Cl)cccc23)NC(=O)[C@H](Cc2ccncc2)NC(=O)[C@H](CC(N)=O)NC(=O)[C@H](CCC(=O)O)N(C)C(=O)[C@H](Cc2c[nH]c3ncccc23)NC(=O)[C@H](CO)NC(=O)[C@H]([C@@H](C)c2ccncc2)NC1=O [SEQ ID NO. 180] ({CH2CO}-[Nle][4Pal(3S-Me)]S[Trp(7-aza)][NMeE]N[4Pal][Trp(7-Cl)][αMeS][Phe(4-COOH)]Y[Sar][Trp(βS-Me,7-OMe)]C-NH2; thioether N-14)	0.3	0.18	> 1000
CCCC[C@@H]1NC(=O)[C@@H]2CC[C@@H](C2)NC(=O)[C@H]([C@@H](C)c2c[nH]c3c(OC)cccc23)NC(=O)CN(C)C(=O)[C@H](Cc2ccc(C(=O)O)cc2)NC(=O)[C@H](Cc2ccc(C(N)=O)cc2)NC(=O)[C@](C)(CO)NC(=O)[C@H](Cc2c[nH]c3c(Cl)cccc23)NC(=O)[C@H](Cc2ccncc2)NC(=O)[C@H]([C@H](C)O)NC(=O)[C@H]2C[C@H](O)CN2C(=O)[C@H](Cc2c[nH]c3ccccc23)NC(=O)[C@@H]2CC[C@@H](O)CN2C(=O)[C@H](Cc2ccncc2)NC1=O [SEQ ID NO. 187] (cyclo([4Pal][Trp(7-Cl)][αMeS][Phe(4-CONH2)][Phe(4-COOH)][Sar][Trp(βS-Me,7-OMe)][X1][Nle][4Pal][Pip(5R-OH)]W[dHyp][aThr]))	–	0.09	> 1000
CCCC[C@@H]1NC(=O)[C@@H]2CC[C@@H](C2)NC(=O)[C@H]([C@@H](C)c2c[nH]c3c(OC)cccc23)NC(=O)CN(C)C(=O)[C@H]([C@H](O)c2ccc(C(=O)O)cc2)NC(=O)[C@H](Cc2ccc(C(N)=O)cc2)NC(=O)[C@](C)(CO)NC(=O)[C@H](Cc2c[nH]c3c(Cl)cccc23)NC(=O)[C@H](Cc2ccncc2)NC(=O)[C@H](CC(N)=O)NC(=O)[C@H]2C[C@H](O)CN2C(=O)[C@H](Cc2c[nH]c3ccccc23)NC(=O)[C@@H]2CC[C@@H](O)CN2C(=O)[C@H](Cc2ccncc2)NC1=O [SEQ ID NO. 188] (cyclo([4Pal][Trp(7-Cl)][αMeS][Phe(4-CONH2)][X24][Sar][Trp(βS-Me,7-OMe)][X1][Nle][4Pal][Pip(5R-OH)]W[dHyp]N))	–	0.1	> 1000
